Laboratory results taken from patent US20230024283A1, “HERBICIDAL COMPOUNDS” (SYNGENTA CROP PROTECTION AG, priority 2020, published 2023).

Columns and labels:
Assay in all cases: Post-emergence herbicidal glasshouse test
Assay type in all cases: in vivo
Settings in all cases: post-emergence spray, 1000 g/ha, evaluated after 13 days, five-point scale
[1] = tested on: Echinochloa crus-galli (ECHCG)
Protocol: (§1) Seeds of a variety of test species are sown in standard soil in pots (Ipomoea hederacea (IPOHE), Abutilon theophrasti (ABUTH), Amaranthus retoflexus (AMARE), Echinochloa crus-galli (ECHCG), Setaria faberi (SETFA)). After 8 days cultivation under controlled conditions in a glasshouse (at 24/16° C., day/night; 14 hours light; 65% humidity), the plants are sprayed with an aqueous spray solution derived from the formulation of the technical active ingredient in acetone / water (50:50) solution containing 0.5% Tween 20 (polyoxyethelyene sorbitan monolaurate, CAS RN 9005-64-5). Compounds are applied at 1000 g/ha unless otherwise stated. The test plants are then grown in a glasshouse under controlled conditions in a glasshouse (at 24/16° C., day/night; 14 hours light; 65% humidity) and watered twice daily. After 13 days the test is evaluated for the percentage damage caused to the plant. The biological activities are shown in the following table on a five-point scale (5=81-100%; 4=61-80%; 3=41-60%; 2=21-40%; 1=0-20%).

[2] = tested on: Abutilon theophrasti (ABUTH)
Protocol: as §1

[3] = tested on: Amaranthus retoflexus (AMARE)
Protocol: as §1

Setaria faberi (SETFA) = tested on: Setaria faberi (SETFA)
Protocol: as §1

[4] = tested on: Ipomoea hederacea (IPOHE)
Protocol: as §1

| SMILES | percentage damage caused to the plant, ECHCG [1] | percentage damage caused to the plant, ABUTH [2] | percentage damage caused to the plant, AMARE [3] | percentage damage caused to the plant, SETFA (Setaria faberi (SETFA)) | percentage damage caused to the plant, IPOHE [4] |
| --- | --- | --- | --- | --- | --- |
| CC(C)C(=O)Oc1c(Cl)cc(C#N)cc1-c1cccc(F)c1 [Compound 2.006] | 1 (1=0-20%) | 4 (4=61-80%) | 3 (3=41-60%) | 1 (1=0-20%) | 1 (1=0-20%) |
| N#Cc1cc(Br)c(O)c(-c2cnc3c(c2)OC(F)(F)O3)c1 [Compound 1.036] | 3 (3=41-60%) | 2 (2=21-40%) | 5 (5=81-100%) | 4 (4=61-80%) | 3 (3=41-60%) |
| N#Cc1cc(-c2cccc(F)c2)c(O)c([N+](=O)[O-])c1 [Compound 1.191] | 2 (2=21-40%) | 4 (4=61-80%) | 5 (5=81-100%) | 2 (2=21-40%) | 3 (3=41-60%) |
| Cc1cn(-c2cc(C#N)cc(C(F)(F)F)c2O)nc1C(F)(F)F [Compound 1.187] | 1 (1=0-20%) | 1 (1=0-20%) | 5 (5=81-100%) | 1 (1=0-20%) | 1 (1=0-20%) |
| N#Cc1cc(Br)c(O)c(-c2cc(F)cc(C(F)(F)F)c2)c1 [Compound 1.027] | – | 4 (4=61-80%) | 5 (5=81-100%) | 4 (4=61-80%) | 3 (3=41-60%) |
| N#Cc1cc(Cl)c(O)c(-n2cc(C(F)(F)F)cn2)c1 [Compound 1.001, 3-chloro-4-hydroxy-5-[4-(trifluoromethyl)pyrazol-1-yl]benzonitrile] | – | 5 (5=81-100%) | 4 (4=61-80%) | 4 (4=61-80%) | 1 (1=0-20%) |
| N#Cc1cc(-c2ccnc(C(F)(F)F)c2)c(O)c(C(F)(F)F)c1 [Compound 1.158] | 1 (1=0-20%) | 1 (1=0-20%) | 4 (4=61-80%) | 1 (1=0-20%) | 2 (2=21-40%) |
| N#Cc1cc(Br)c(O)c(-c2ccc(F)c(F)c2)c1 [Compound 1.130] | 1 (1=0-20%) | 5 (5=81-100%) | 5 (5=81-100%) | 1 (1=0-20%) | 2 (2=21-40%) |
| N#Cc1cc(Br)c(O)c(-c2ccc(C(F)(F)F)cc2)c1 [Compound 1.058] | 2 (2=21-40%) | 1 (1=0-20%) | 5 (5=81-100%) | 3 (3=41-60%) | 2 (2=21-40%) |
| N#Cc1cc(-c2cc(F)c(F)c(F)c2)c(O)c(C(F)(F)F)c1 [Compound 1.182] | 1 (1=0-20%) | 4 (4=61-80%) | 5 (5=81-100%) | 1 (1=0-20%) | 5 (5=81-100%) |
| N#Cc1cc(Br)c(O)c(-c2cccc(Cl)c2F)c1 [Compound 1.045] | 1 (1=0-20%) | 3 (3=41-60%) | 5 (5=81-100%) | 1 (1=0-20%) | 1 (1=0-20%) |
| N#Cc1cc(-n2cc(F)cn2)c(O)c(C(F)(F)F)c1 [Compound 1.186] | 1 (1=0-20%) | 5 (5=81-100%) | 2 (2=21-40%) | 1 (1=0-20%) | 4 (4=61-80%) |
| COc1cc(-c2cc(C#N)cc(Br)c2O)cc(C(F)(F)F)n1 [Compound 1.009] | – | 2 (2=21-40%) | 4 (4=61-80%) | 2 (2=21-40%) | 2 (2=21-40%) |
| N#Cc1cc(Br)c(O)c(-c2cncc(F)c2)c1 [Compound 1.052] | 1 (1=0-20%) | 5 (5=81-100%) | 5 (5=81-100%) | 3 (3=41-60%) | 1 (1=0-20%) |
| N#Cc1cc(C#N)c(O)c(-c2cccc(F)c2)c1 [Compound 1.194] | 1 (1=0-20%) | 3 (3=41-60%) | 2 (2=21-40%) | 2 (2=21-40%) | 3 (3=41-60%) |
| N#Cc1cc(F)cc(-c2cc(C#N)cc(Br)c2O)c1 [Compound 1.032] | – | 4 (4=61-80%) | 5 (5=81-100%) | 4 (4=61-80%) | 3 (3=41-60%) |
| N#Cc1cc(-n2cc(C(F)(F)F)cn2)c(O)c(C(F)(F)F)c1 [Compound 1.190] | 1 (1=0-20%) | 1 (1=0-20%) | 3 (3=41-60%) | 1 (1=0-20%) | 1 (1=0-20%) |
| N#Cc1cc(-c2csc(C(F)(F)F)n2)c(O)c(C(F)(F)F)c1 [Compound 1.225] | – | – | 5 (5=81-100%) | – | – |
| N#Cc1cc(Br)c(O)c(-c2cc(F)cc(Cl)c2)c1 [Compound 1.034] | – | 4 (4=61-80%) | 4 (4=61-80%) | – | – |
| N#Cc1cc(Br)c(O)c(-c2cccc(C(F)(F)F)c2)c1 [Compound 1.060] | 1 (1=0-20%) | 4 (4=61-80%) | 5 (5=81-100%) | 1 (1=0-20%) | 2 (2=21-40%) |
| Cc1cc(F)cc(-c2cc(C#N)cc(C(F)(F)F)c2O)c1 [Compound 1.162] | 1 (1=0-20%) | 1 (1=0-20%) | 2 (2=21-40%) | 1 (1=0-20%) | 3 (3=41-60%) |
| Cn1nc(-c2cc(C#N)cc(Br)c2O)cc1C(F)(F)F [Compound 1.007, 3-bromo-4-hydroxy-5-[1-methyl-5-(trifluoromethyl)pyrazol-3-yl]benzonitrile] | – | 2 (2=21-40%) | 5 (5=81-100%) | 1 (1=0-20%) | 3 (3=41-60%) |
| N#Cc1cc(Br)c(O)c(-c2ccc(C(F)(F)F)c(C(F)(F)F)c2)c1 [Compound 1.008] | – | 2 (2=21-40%) | 5 (5=81-100%) | 4 (4=61-80%) | 2 (2=21-40%) |
